The assay deals with P388 leukemia ip, CD2F1 mice, survival T/C. As to the kind of experiment: NCI In Vivo Anticancer Drug Screen. Data for tumor model P388 Leukemia (intraperitoneal) in CD2F1 (CDF1) mice. Particulars: endpoint: median survival time, higher = longer survival. In outline: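 Mice carrying the transplanted tumor received test compound or vehicle. Survival was recorded in each group, and the value is the treated-group measurement divided by that of the vehicle-treated control group.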

[1] abbreviates: dose: 50.0 mg/kg/injection, schedule: Q01DX009 (ip), vehicle: Klucel (hydroxypropylcellulose) (HPC).
[2] abbreviates: dose: 50.0 mg/kg/injection, schedule: Q01DX005 (ip), vehicle: Klucel (hydroxypropylcellulose) (HPC).
[3] abbreviates: dose: 100.0 mg/kg/injection, schedule: Q01DX005 (ip), vehicle: Klucel (hydroxypropylcellulose) (HPC).
Setting [4] is: dose: 200.0 mg/kg/injection, schedule: Q01DX005 (ip), vehicle: Klucel (hydroxypropylcellulose) (HPC).
Where [5] appears, read: dose: 50.0 mg/kg/injection, schedule: Q01DX005 (ip), vehicle: saline with Tween-80.
The mark [6] stands for this setting: dose: 100.0 mg/kg/injection, schedule: Q01DX005 (ip), vehicle: saline with Tween-80.

Structures are written as SMILES. “And” between values parts separate entries of the source, which are not always exact repeats. Equal values may be shown once. Toxic doses and inconclusive results are not listed.

Turning to `CC1(C)N=C(N)N=C(N)N1c1ccc(CCCCc2ccc(S(=O)(=O)F)cc2Cl)c(Cl)c1`, the T/C was 107 % of control (dose: 0.13 mg/kg/injection, schedule: Q03HX016 (ip), vehicle: other); 116 % of control (dose: 0.25 mg/kg/injection, schedule: Q03HX016 (ip), vehicle: other); 124 % of control (dose: 0.5 mg/kg/injection, schedule: Q03HX016 (ip), vehicle: other); 111 % of control (dose: 1.0 mg/kg/injection, schedule: Q01DX005 (ip), vehicle: other); 165 % of control (dose: 1.98 mg/kg/injection, schedule: Q01DX009 (ip), vehicle: saline with Tween-80); 120 % of control (dose: 2.0 mg/kg/injection, schedule: Q01DX005 (ip), vehicle: other). Further, the T/C (dose: 2.0 mg/kg/injection, schedule: Q04DX002 (ip), vehicle: other) is 109 % of control; the T/C (dose: 2.82 mg/kg/injection, schedule: Q01DX009 (ip), vehicle: saline with Tween-80) was 168 % of control; the T/C (dose: 3.89 mg/kg/injection, schedule: Q01DX009 (ip), vehicle: Klucel (hydroxypropylcellulose) (HPC)) was 152 % of control and 163 % of control; the T/C (dose: 4.0 mg/kg/injection, schedule: Q01DX005 (ip), vehicle: other) is 121 % of control; the T/C (dose: 4.0 mg/kg/injection, schedule: Q04DX002 (ip), vehicle: other) was 118 % of control; the T/C (dose: 4.03 mg/kg/injection, schedule: Q01DX009 (ip), vehicle: saline with Tween-80) was 176 % of control. The T/C is 176 % of control (dose: 5.76 mg/kg/injection, schedule: Q01DX009 (ip), vehicle: saline with Tween-80); 155 % of control (dose: 6.25 mg/kg/injection, schedule: Q01DX009 (ip), vehicle: distilled water + Tween-80); 163 % of control (dose: 6.25 mg/kg/injection, schedule: Q01DX009 (ip), vehicle: saline with Tween-80); 164 % of control (dose: 6.48 mg/kg/injection, schedule: Q01DX009 (ip), vehicle: Klucel (hydroxypropylcellulose) (HPC)); 119 % of control (dose: 8.0 mg/kg/injection, schedule: Q01DX005 (ip), vehicle: other); 116 % of control (dose: 8.0 mg/kg/injection, schedule: Q04DX002 (ip), vehicle: other). For the same compound, the T/C is, setting by setting: (dose: 8.23 mg/kg/injection, schedule: Q01DX009 (ip), vehicle: saline with Tween-80) 197 % of control; (dose: 8.64 mg/kg/injection, schedule: Q01DX005 (ip), vehicle: Klucel (hydroxypropylcellulose) (HPC)) 156 % of control; (dose: 10.8 mg/kg/injection, schedule: Q01DX009 (ip), vehicle: Klucel (hydroxypropylcellulose) (HPC)) 166 % of control and 182 % of control; (dose: 11.76 mg/kg/injection, schedule: Q01DX009 (ip), vehicle: saline with Tween-80) 212 % of control; (dose: 12.5 mg/kg/injection, schedule: Q01DX009 (ip), vehicle: distilled water + Tween-80) 155 % of control; (dose: 16.0 mg/kg/injection, schedule: Q01DX005 (ip), vehicle: other) 118 % of control. For the same compound, the T/C is, setting by setting: (dose: 16.0 mg/kg/injection, schedule: Q04DX002 (ip), vehicle: other) 106 % of control; (dose: 16.8 mg/kg/injection, schedule: Q01DX009 (ip), vehicle: other) 100 % of control; (dose: 16.8 mg/kg/injection, schedule: Q01DX009 (ip), vehicle: saline with Tween-80) 250 % of control; (dose: 18.0 mg/kg/injection, schedule: Q01DX009 (ip), vehicle: Klucel (hydroxypropylcellulose) (HPC)) 163 % of control and 214 % of control; (dose: 24.0 mg/kg/injection, schedule: Q01DX005 (ip), vehicle: Klucel (hydroxypropylcellulose) (HPC)) 164 % of control; (dose: 24.0 mg/kg/injection, schedule: Q01DX009 (ip), vehicle: saline with Tween-80) 256 % of control. In addition, the T/C reads like this: (dose: 25.0 mg/kg/injection, schedule: Q01DX009 (ip), vehicle: distilled water + Tween-80) 160 % of control; (dose: 25.0 mg/kg/injection, schedule: Q01DX009 (oral), vehicle: saline with Tween-80) 102 % of control; (dose: 30.0 mg/kg/injection, schedule: Q01DX009 (ip), vehicle: Klucel (hydroxypropylcellulose) (HPC)) 163 % of control and 236 % of control; (dose: 32.0 mg/kg/injection, schedule: Q04DX002 (ip), vehicle: other) 111 % of control; (dose: 34.28 mg/kg/injection, schedule: Q01DX009 (ip), vehicle: saline with Tween-80) 228 % of control; (dose: 40.0 mg/kg/injection, schedule: Q01DX005 (ip), vehicle: Klucel (hydroxypropylcellulose) (HPC)) 172 % of control. The T/C is 87 % of control under setting [1]; 102 % of control (dose: 50.0 mg/kg/injection, schedule: Q01DX009 (oral), vehicle: saline with Tween-80); 195 % of control (dose: 75.0 mg/kg/injection, schedule: Q01DX009 (ip), vehicle: saline with Tween-80); 173 % of control (dose: 89.0 mg/kg/injection, schedule: Q04DX003 (ip), vehicle: saline with Tween-80); 107 % of control (dose: 100.0 mg/kg/injection, schedule: Q01DX009 (oral), vehicle: saline with Tween-80); 86 % of control (dose: 110.0 mg/kg/injection, schedule: Q01DX009 (ip), vehicle: saline with Tween-80). For the same compound, the T/C by setting is: (dose: 133.0 mg/kg/injection, schedule: Q04DX003 (ip), vehicle: saline with Tween-80) 188 % of control; (dose: 200.0 mg/kg/injection, schedule: Q01DX009 (oral), vehicle: saline with Tween-80) 105 % of control; (dose: 200.0 mg/kg/injection, schedule: Q04DX003 (ip), vehicle: saline with Tween-80) 307 % of control; (dose: 400.0 mg/kg/injection, schedule: Q01DX009 (oral), vehicle: saline with Tween-80) 99 % of control.
With `N#CC(c1cc2c(cc1Br)OCO2)N1CCCC1` (configuration not stated), the T/C runs as follows: (dose: 100.0 mg/kg/injection, schedule: Q01DX001 (ip), vehicle: Klucel (hydroxypropylcellulose) (HPC)) 100 % of control; (dose: 200.0 mg/kg/injection, schedule: Q01DX001 (ip), vehicle: Klucel (hydroxypropylcellulose) (HPC)) 101 % of control; (dose: 400.0 mg/kg/injection, schedule: Q01DX001 (ip), vehicle: Klucel (hydroxypropylcellulose) (HPC)) 99 % of control.
`Cn1/c(=N\N=C\c2ccccc2OCCO)sc2ccccc21`: the T/C is 103 % of control (dose: 50.0 mg/kg/injection, schedule: Q01DX009 (ip), vehicle: saline + alcohol); 100 % of control (dose: 100.0 mg/kg/injection, schedule: Q01DX009 (ip), vehicle: saline + alcohol); 101 % of control (dose: 200.0 mg/kg/injection, schedule: Q01DX009 (ip), vehicle: saline + alcohol).
Take `CCC1(CC)C(=O)ON(C(C)(C)N2OC(=O)C(CC)(CC)C2=O)C1=O`: the T/C by setting is: under setting [2], 102 % of control; under setting [3], 104 % of control; under setting [4], 96 % of control.
As for `CC1(C)C(=O)C2(CCCCC2)C1N1CCCCC1` (configuration not stated), the T/C under setting [1] was 96 % of control; the T/C (dose: 100.0 mg/kg/injection, schedule: Q01DX009 (ip), vehicle: Klucel (hydroxypropylcellulose) (HPC)) is 98 % of control; the T/C (dose: 200.0 mg/kg/injection, schedule: Q01DX009 (ip), vehicle: Klucel (hydroxypropylcellulose) (HPC)) was 107 % of control.
For `N[C@H]1CN([C@@H](C(=O)O)c2ccc(O)cc2)C1=O`, the T/C under setting [2] is 105 % of control; the T/C under setting [3] was 105 % of control; the T/C under setting [4] was 103 % of control; the T/C (dose: 400.0 mg/kg/injection, schedule: Q01DX005 (ip), vehicle: Klucel (hydroxypropylcellulose) (HPC)) is 99 % of control.
For `CC(=O)Oc1cc2c(cc1OC(C)=O)C(=O)c1cc3c(cc1C2=O)OCO3`, the T/C reads like this: (dose: 60.0 mg/kg/injection, schedule: Q01DX005 (ip), vehicle: saline with Tween-80) 107 % of control; (dose: 120.0 mg/kg/injection, schedule: Q01DX005 (ip), vehicle: saline with Tween-80) 120 % of control; (dose: 240.0 mg/kg/injection, schedule: Q01DX005 (ip), vehicle: saline with Tween-80) 108 % of control.
For the compound `Cc1ccc(S(=O)(=O)N(O)c2ccc(C)cc2C)cc1`, the T/C runs as follows: under setting [5], 112 % of control; under setting [6], 107 % of control.
In the case of `Oc1cccc([C@@]23CCCC[C@H]2CN(CC2CC2)CC3)c1`, the T/C under setting [5] is 90 % of control and the T/C under setting [6] was 111 % of control.
As to `ClC(=Nc1ccccc1)c1ccccn1`, the T/C is, setting by setting: (dose: 12.5 mg/kg/injection, schedule: Q01DX009 (ip), vehicle: Klucel (hydroxypropylcellulose) (HPC)) 101 % of control; (dose: 25.0 mg/kg/injection, schedule: Q01DX009 (ip), vehicle: Klucel (hydroxypropylcellulose) (HPC)) 101 % of control; under setting [1], 96 % of control.

(Values after PubChem BioAssay AID330 (DTP/NCI, 2004).)
